Experimental data as given in US7544773B2 (priority 2003, dated 2009).
No end group written: not given here.

Target: Caf1M-Caf1, Caf1M-(Caf1)2 and Caf1M-(Caf1)3 complexes (Yersinia pestis, UniProt P26948)
Sequence (P26948 22-170 limits assumed, one chain of several): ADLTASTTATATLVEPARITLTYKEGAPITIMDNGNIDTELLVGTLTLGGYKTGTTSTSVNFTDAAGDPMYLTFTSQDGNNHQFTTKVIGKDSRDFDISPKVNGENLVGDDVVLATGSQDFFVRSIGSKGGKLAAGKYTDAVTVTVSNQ

ATATLV
dissociation of the complexes to free Caf1M and Caf1: some dissociation
formation of high molecular weight complexes (polymerization): polymerization was completely inhibited
